Source: doi:10.1101/2020.08.04.236091v1 (biorxiv, 2020)

Biological target: T1, MdomOR30a (co-expressed with MdomOrco) (Musca domestica, UniProt A0A1I8MP03)
T1 sequence (A0A1I8MP03 1-373): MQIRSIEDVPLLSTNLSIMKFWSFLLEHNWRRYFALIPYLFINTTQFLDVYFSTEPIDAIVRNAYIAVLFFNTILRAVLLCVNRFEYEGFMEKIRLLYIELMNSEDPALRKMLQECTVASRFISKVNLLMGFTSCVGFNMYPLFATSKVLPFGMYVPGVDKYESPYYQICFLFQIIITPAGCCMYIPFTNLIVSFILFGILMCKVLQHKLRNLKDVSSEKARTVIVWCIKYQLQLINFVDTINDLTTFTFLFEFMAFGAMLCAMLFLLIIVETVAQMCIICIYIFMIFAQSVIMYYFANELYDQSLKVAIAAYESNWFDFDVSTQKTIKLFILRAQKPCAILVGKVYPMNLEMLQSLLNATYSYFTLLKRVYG
T1 sequence (I0E1X6 1-478 partner): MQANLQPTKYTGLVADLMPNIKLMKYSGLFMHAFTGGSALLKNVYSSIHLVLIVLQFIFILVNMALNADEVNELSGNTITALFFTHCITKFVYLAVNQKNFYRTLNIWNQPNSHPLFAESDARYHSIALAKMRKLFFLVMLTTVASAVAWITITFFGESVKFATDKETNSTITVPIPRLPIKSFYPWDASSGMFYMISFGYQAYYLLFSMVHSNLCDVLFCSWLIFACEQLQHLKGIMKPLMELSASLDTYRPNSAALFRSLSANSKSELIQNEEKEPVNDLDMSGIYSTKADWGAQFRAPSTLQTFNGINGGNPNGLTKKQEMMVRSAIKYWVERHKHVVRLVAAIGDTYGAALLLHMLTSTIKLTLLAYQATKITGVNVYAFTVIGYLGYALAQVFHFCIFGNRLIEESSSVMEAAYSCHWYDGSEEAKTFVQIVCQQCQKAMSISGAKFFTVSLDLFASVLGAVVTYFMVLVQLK
Test: two-electrode voltage clamp, Xenopus oocytes, odorant-induced currents
Type: cell-based

EC50 [µM] | Compound
5.2 | c1ccc2[nH]ccc2c1 [indole]
7.04 | Cc1[nH]c2ccccc2c1C [2,3-dimethylindole]
0.331 | Cc1c[nH]c2ccccc12 [3-methylindole]
